Data reported in publication PMC9282638, “A Suite of Activity-Based Probes To Dissect the KLK Activome in Drug-Resistant Prostate Cancer” (Journal of the American Chemical Society, 2021).

Assays:
Type in all cases: biochemical
KLK14 = target: T1, KLK14 (Homo sapiens, UniProt Q9P0G3); test: Inhibition of KLK14 after incubation with 50 µM probe (Figure S8); conditions: 30 minutes
T1 construct: purchased R&D Systems
T1 sequence (Q9P0G3 25-251): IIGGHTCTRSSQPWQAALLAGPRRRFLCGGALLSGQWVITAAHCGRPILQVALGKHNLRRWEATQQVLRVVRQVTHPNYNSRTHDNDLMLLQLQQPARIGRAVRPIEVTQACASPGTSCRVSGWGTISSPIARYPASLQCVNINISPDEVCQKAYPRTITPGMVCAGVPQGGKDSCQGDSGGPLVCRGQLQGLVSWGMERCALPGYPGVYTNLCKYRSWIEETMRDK

KLK3 = target: T2, KLK3 (Homo sapiens, UniProt P07288); test: Probe labeling of KLK3 in LNCaP conditioned media (in-gel fluorescence / streptavidin blot); conditions: LNCaP CM, 1 h treatment
T2 construct: endogenous in cells; host or cells: LNCaP cells treated with 10 nM DHT; conditioned medium
Excerpt: An optimized tetrapeptide designed to occupy the KLK S1–S4 subsites was envisaged for the ABP specificity element, grafted onto a peptidyl-diphenyl phosphonate (DPP) warhead which reacts specifically and exclusively with the Ser195 residue in the KLK3 active site.[21] […] We therefore replaced the boronic acid in 2 with the DPP moiety in 1 and capped the N-terminus with a tetramethyl rhodamine (TAMRA) fluorophore to afford 3, which served as a prototype ABP for KLK3. A mixed solid-phase and solution-phase approach was used for the synthesis of peptidyl-DPP compounds, as described previously (Figures S1 and S2).[24] […]
Despite exquisite selectivity, maximal KLK3 labeling was achieved only after treatment with 20 μM 3 for 1 h. We therefore optimized probe potency by systematically modifying each amino acid side chain in the P1–P4 positions of a morpholine-capped peptidyl-DPP inhibitor scaffold and determined the potency of each analogue using competitive-ABPP against 3.[25],[26] […] Second generation biotinylated 20 and fluorescent 21 ABPs (Figures 2G and S7) based on this scaffold retained exquisite selectivity for KLK3 in LNCaP CM, but in contrast to first-generation ABP 3 achieved maximum labeling at only 1 μM and readily detectable labeling down to 130 nM (Figures 2H and S7). […]

KLK2 = target: T3, KLK2 (Homo sapiens, UniProt P20151); test: Inhibition of KLK2 after incubation with 50 µM probe (Figure S8); conditions: 30 minutes
T3 construct: purchased R&D Systems
Protocol: Table S1: Antibodies used throughout this project
Protein Supplier Cat. No. Host /clonal Immunogen
KLK2 Abcam Ab124899 Rabbit Mono Synthetic peptide within amino […]
KLK3 SCBT sc-7316 Mouse Mono Full length KLK3 of human origin
KLK14 Abcam Ab128957 Rabbit Mono Synthetic peptide within the C- […]
Transferrin Abcam Ab66952 Rabbit Poly Full length Transferrin of human […]
HSP90 SCBT sc-69703 Mouse Mono Full length HSP90 of human
In gel-fluorescence: LNCaP conditioned media (50 µg) was treated with a fluorescent activity-based probe for 1 h. After 1 h, proteins were precipitated using the aforementioned procedure and resuspended in a 3:1 ratio of PBS and sample loading buffer to a concentration of 1 mg/mL. After boiling for 5 min, 10 µL of sample was loaded on to a hand cast 12 % Bis-Tris gel and proteins were separated by SDS-PAGE as described above. Gels were then scanned for fluorescence at the appropriate wavelength.
Immunoprecipitation: LNCaP conditioned media (100 µg) was treated with the appropriate ABP for 1h. Proteins were precipitated using the CHCl3/MeOH procedure outlined above and resuspended in RIPA buffer (20 mM Tris, 150 mM NaCl, 1 mM EDTA, 1mM EGTA, 1 % NP-40, 1 % sodium deoxycholate, 2.5 mM sodium pyrophosphate, 1 mM glycerophosphate, 1 mM Na3VO4 pH 7.5) to a concentration of 1 mg/mL. […]

T2 sequence (P07288 25-261): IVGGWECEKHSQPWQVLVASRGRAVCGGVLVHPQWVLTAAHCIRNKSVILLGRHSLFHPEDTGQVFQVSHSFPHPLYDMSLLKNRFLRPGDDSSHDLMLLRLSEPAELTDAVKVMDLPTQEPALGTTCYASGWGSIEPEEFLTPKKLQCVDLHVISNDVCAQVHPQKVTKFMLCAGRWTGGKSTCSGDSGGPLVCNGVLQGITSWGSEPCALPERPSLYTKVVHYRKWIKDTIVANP
T3 sequence (P20151 25-261): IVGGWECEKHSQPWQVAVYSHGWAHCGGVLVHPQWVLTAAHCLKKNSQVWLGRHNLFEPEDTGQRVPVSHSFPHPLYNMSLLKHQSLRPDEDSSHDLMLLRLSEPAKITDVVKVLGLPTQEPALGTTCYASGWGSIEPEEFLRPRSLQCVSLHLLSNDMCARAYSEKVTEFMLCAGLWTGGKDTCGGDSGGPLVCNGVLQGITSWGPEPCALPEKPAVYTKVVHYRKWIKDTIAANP

CCC[C@H](NC(=O)[C@H](CCC(N)=O)NC(=O)[C@H](CC(N)=O)NC(=O)CCCCCNC(=O)CCCC[C@@H]1SC[C@@H]2NC(=O)N[C@@H]21)C(=O)NC(c1ccc(C(N)=O)cc1)P(=O)(Oc1ccccc1)Oc1ccccc1 (stereo partly shown) [compound 20]
inhibition of KLK14 (KLK14): no inhibition
concentration at which maximal KLK3 labeling was achieved (KLK3): 1 µM
lowest concentration with readily detectable KLK3 labeling (KLK3): 130 nM
inhibition of KLK2 (KLK2): no inhibition
